The values that follow come from publication PMC10778198, “First-in-Human Dose-Escalation Study of the Novel Oral Depsipeptide Class I-Targeting HDAC Inhibitor Bocodepsin (OKI-179) in Patients with Advanced Solid Tumors” (Cancers, 2023).

For this assay, the system named is advanced solid tumors. Kind of assay: antitumor activity by RECIST 1.1. The format is in vivo, human. From the text:
Patients were continuously evaluated for adverse events throughout the study using the Common Terminology Criteria of Adverse Events (CTCAE v. 5). The patients underwent a clinical history and physical examination, an ECOG PS, a complete blood count (CBCs), chemistry, coagulation studies, urinalysis, a serum pregnancy test (as applicable), a triplicate ECG, an ophthalmology examination, and baseline tumor assessment at screening. During cycle 1, weekly history and physical examination, CBC, chemistry, coagulation parameters, urinalysis, and triplicate ECGs were performed; in subsequent cycles, weekly labs were limited to a CBC. Repeat ophthalmology examinations were performed at cycle 3, day 1, and at the end of treatment. Repeat tumor assessment was performed every 2 cycles (6 weeks) in accordance with RECIST 1.1. Descriptive statistics were used for baseline characteristics, safety assessments, pharmacokinetic variables, exploratory assessments, and efficacy analysis, including the duration of response and time to progression. Tables were used to summarize the data across the cohort of patients and various dosing groups. Geometric means were used to calculate plasma concentration-time profiles. Fold changes from baseline were used to calculate acetylation.

Each structure is given as a SMILES string. “And” between values parts separate entries of the source, which are not always exact repeats. Identical values can stand only once.

In the case of `CC(C)[C@H](N)C(=O)SCC/C=C/[C@@H]1CC(=O)NCc2nc(cs2)C(=O)NC(C)(C)C(=O)N[C@@H](C(C)C)C(=O)O1` [OKI-179, Bocodepsin], the “partial or complete response” value (RECIST 1.1) is “No partial or complete response”. In addition, the “stable disease as the best response” value (heavily pretreated patient population) is 39%. In addition, the “patients with stable disease for > 5 months” value (in vivo) is “Six”. For the same compound, where the note is “two patients with platinum-resistant serous ovarian cancer, one value each”, the “time in the study with stable disease” value was 7.5 months and 14.7 months.
